Test results: patent publication US20250282895A1, “PHARMACEUTICAL COMPOSITIONS OF CHEMOTHERAPEUTIC AGENTS BASED ON BETA-S[…]-AMINO ACID DERIVATIVES” (priority 2021, published 2025)
Counter-ions that a name gives are not always drawn.

Assay: Comparative stability, Formulation 1 (Na3-citrate buffered)
Format: physicochemical
Conditions: Formulation 1, 25° C.
Experimental: The stability of Compound (1c) either as the HCl salt or as the free base was compared to the stability of melphalan HCl and/or bendamustine HCl in various pharmaceutical formulations and at different concentrations and at temperatures of 0° C. or 25° C.
The stability of the compounds in the pharmaceutical formulations was determined at concentrations within the range from 0.4 mg/mL to 0.5 mg/mL, from 0.9 mg/mL to 1.1 mg/mL, and from 1.8 mg/mL to 2.1 mg/mL.
The amount of the active pharmaceutical ingredient (API) (Compound (1c), melphalan or bendamustine) in the pharmaceutical formulations at different times during storage was determined using HPLC/UV as described in detail for Example 4 and Example 5.
The first formulation included a mixture of 57.5 vol-% 1,2-propylene glycol (1,2-PG), 30 vol-% Kolliphor® HS 15 (Solutol®, Macrogol®, BASF AG/SigmaAldrich), and 12.5 vol-% ethanol (EtOH), and the resulting solution was further diluted and adjusted to pH 6.8 using a pH 8.1-8.3 Na3-citrate buffer (51 mM Na3-citrate·2H2O and 73.6 mM NaCl).
The pH 8.1-8.3 Na3-citrate buffer was prepared form 1.50 g (5.10 mmol) of Na3-citrate. 2H2O (Na3C6H5O7·2H2O; MW 294.10 g/mol; J. T. Baker, 3650-01) and 0.43 g (7.36 mmol) of sodium chloride (NaCl; MW 58.44 g/mol; SigmaAldrich, S9888) dissolved to 100 mL with double-distilled water (dd-H2O) (Arrowhead). The solution was filtered through a 0.45 μm nylon syringe filter, and the pH of the solution was adjusted to 8.1-8.3 with a saturated aqueous solution of sodium hydrogencarbonate (NaHCO3).
The excipient mixture was prepared from 4.77 g (62.7 mmol; 4.6 mL) 1,2-propylene glycol (1,2-PG; MW 76.09 g/mol; d 1.036; Acros Organics, 220870010), 2.52 g (2.40 mL, d 1.05) of melted (15 s microwaving) Kolliphor® HS 15 (BASF AG/SigmaAldrich, 42966), and 0.798 g (17.32 mmol, 1.0 mL) of ethanol (EtOH, MW 46.06 g/mol, d 0.798, KOPTEC, V1016). The clear viscous mixture was warmed to about 40° C. before use (water bath).
A series of 12 mL glass vials each containing 6.1 mg ([…]) of Compound (1c) mono-hydrochloride salt (corresponding to 5.5 mg of Compound (1c) as the free base) were prepared as described in Example 5 through lyophilization of aliquots of an acidified stock solution.
(§1) 660 μL (6 vol-%) of pre-warmed excipient mixture were added to the Compound (1c) mono-hydrochloride salt in the vial. Compound (1c) mono-hydrochloride salt was dissolved with gentle heating and vortexing. The viscous solution was further diluted with 10,340 μL (94 vol-%) of pH 8.1-8.3 Na3-citrate buffer to provide 11.0 mL of a clear, colorless formulation with a concentration of 0.5 mg/ml of Compound (1c) as a monohydrochloride salt and a pH of 6-7.
as §1, with “330” for “660”, “5,170” for “10,340”, “5.5” for “11.0”, “1.0 mg/mL” for “0.5 mg/ml”
as §1, with “165” for “660”, “2,585” for “10,340”, “2.75” for “11.0”, “2.0” for “0.5”
The solutions were placed in glass vials and stored at room temperature (about 25° C.), and the amount of Compound (1c) derived from the mono hydrochloride salt (mono HCl salt) of compound of Formula (1c) was measured at intervals using analytical high pressure liquid chromatography coupled to a UV detector (HPLC/UV) as described in Example 4.

Q: With `Cc1ccc(N(CCCl)CCCl)cc1C[C@H](N)CC(=O)O` [Compound (1c)•HCl, (S)-3-amino-4-(5-(bis(2-chloroethyl)amino)-2-methylphenyl) butanoic acid mono hydrochloride salt] as the molecule, how does the “% API” value (pH 6.8, 0.5 hours, 0.4-0.5 mg/mL) read?
A: 79%

Q: What about the “% API” value (pH 6.8, 0.5 hours, 0.9-1.1 mg/mL) of the same molecule?
A: 84%

Q: And the “% API” value (pH 6.8, 0.5 hours, 1.8-2.1 mg/mL)?
A: 88%

Q: What about the “% API” value (pH 6.8, 2.0 hours, 0.4-0.5 mg/mL) of the same molecule?
A: 52%

Q: And the “% API” value (pH 6.8, 2.0 hours, 0.9-1.1 mg/mL)?
A: 55%

Q: What about the “% API” value (pH 6.8, 2.0 hours, 1.8-2.1 mg/mL) of the same molecule?
A: 65%
